{
  "source": "patent US20090054403A1",
  "about": "“Treatment of Post-Traumatic Stress Disorder” (priority 2007, published 2009)",
  "key": {"[1]": {"system": "acoustic startle reactivity", "assay": "Acoustic startle reactivity on day ten of chronic dosing", "details": "day ten of b.i.d. oral dosing", "description": "The effects of chronic dosing of nepicastat were examined. Between three and thirteen days prior to the first dosing day the rats were placed inside the startle apparatus and after a five minute acclimation period they were presented with a 118 dB noise burst on average once a minute (a variable inter-trial interval ranging between 30 and 90 seconds will be used) for 20 minutes. The startle responses were measured and a mean for the last twenty startle response was calculated for each rat.\nAcoustic startle reactivity (a series of muscle contractions elicited by an intense burst of noise with a rapid onset), and pre-pulse inhibition (sensorimotor gating measured by analyzing any decrease in startle reactivity which occurs when a startling stimulus is immediately preceded by a non startling stimulus) were both measured in eight SR-Lab (San Diego Instruments, San Diego, Calif.) test stations. The rats were placed individually in a Plexiglas cylinder (10 cm diameter) which was housed in a ventilated sound-attenuating enclosure. Acoustic noise bursts (a broad band noise with a rise time and fall time of 1 msec) were presented via a speaker mounted 30 cm above the animal. Also, these speakers produced a 68 dB level of background noise throughout all test sessions. […] A decibel meter was used to calibrate the speakers in each of the eight test station to ±1% of the mean. Additionally, a SR-Lab calibrating instrument was used to calibrate each of the eight startle detection apparatuses to ±2% of the mean. Startle reactivity and pre-pulse inhibition tests were run concurrently immediately alter the motor activity test (about 4 hours and 40 minutes after the morning daily injection of nepicastat, and SKF-102698, and 10 minutes after a supplemental administration of clonidine and d-amphetamine on dosing day ten)."}, "[2]": {"system": "tissue noradrenaline and dopamine content", "assay": "Tissue catecholamines in beagle dogs dosed b.i.d. for 4.5 days (0.05-5 mg/kg)", "assay_type": "in vivo", "description": "Male beagle dogs (10-16 kg, Marshall Farms USA Inc, North Rose, N.Y., USA) were used in the study. On the day of the study, dogs were weighed and randomly assigned to be orally dosed with either empty capsules (control) or the appropriate dose of nepicastat (0.05, 0.5, 1.5 or 5 mg.kg^−1; po, b.i.d.) […]. At six hours following the first dose on day-5, the dogs were euthanized with pentobarbital and the tissues (cerebral cortex, renal artery, left ventricle) were rapidly harvested. The tissues were subsequently processed and analysed for noradrenaline and dopamine as described above.\nMale beagle dogs (10-16 kg, Marshall Farms USA Inc, North Rose, N.Y.) were used in the study. On the day of the study, dogs were randomly assigned to receive either placebo (empty capsule) or the appropriate dose of 2a. Each dog was dosed twice a day for 4.5 days. 6 h after the first dose on day 5, the dogs were euthanized with pentobarbital and the tissues (cerebral cortex. renal artery, left ventricle) harvested, weighed, placed in iced 0.4 M perchloric acid, frozen in liquid nitrogen and stored at −70° C. until analysis. Tissue NE and DA concentrations were assayed by HPLC using electrochemical detection."}, "blood pressure": {"system": "blood pressure", "assay": "Radio-telemetry blood pressure in SHR, up to 30 days", "assay_type": "in vivo"}, "β-adrenergic receptor": {"system": "β-adrenergic receptor", "assay": "Left ventricular [3H]CGP-12177 saturation binding after treatment", "parameters": "species or system beagle dogs", "details": "10 mg/kg/day", "description": "Ventricles were homogenized in 50 mM Tris-HCl, 5 mM Na2EDTA buffer (pH 7.4 at 4° C.) using a Polytron P-10 tissue disrupter (setting 10, 2×15 second bursts). Homogenates were centrifuged at 500×g for 10 minutes and the supernatants stored on ice. The pellets were washed by resuspension and centrifugation at 500×g and the supernatants combined. The combined supernatants were centrifuged at 48,000×g for 20 minutes. The pellets were washed by resuspension and centrifugation once in homogenizing buffer and twice in 50 mM Tris-HCl, 0.5 mM EDTA buffer (pH 7.4 at 4° C.). Membranes were stored at −70° C. until required. Saturation experiments were conducted using [^3H] CGP-12177 in buffer containing 50 mM Tris-HCl, 0.5 mM EDTA (pH 7.4 at 32° C.). Non-specific binding was defined by 10 uM isoproterenol. Total bound, non-specific bound and total count tubes were set up for eight concentrations of [^3H] […] Aquasol scintillation fluid was added to each vial and radioactivity determined by liquid scintillation counting. Saturation binding isotherms were analyzed after first converting total ligand concentrations to free ligand concentrations (total−bound=free). […] Tissue catecholamine levels were analyzed by comparing nepicastat-treated groups with the placebo (control) treated groups. […] Additionally, a linear orthogonal contrast was calculated for all three doses within the context of a one-way ANOVA. […]"}, "[3]": {"system": "sympathetically mediated pressor response", "assay": "Pressor response to pre-ganglionic nerve stimulation in pithed SHR", "assay_type": "in vivo, spontaneously hypertensive rats (SHR)", "description": "Hemodynamic study in SHR. Male SHR (15-16 week old) were used in the study. The animals were lightly anesthetized with ether and the left femoral artery and vein were catheterized for measurement of blood pressure and drug administration, respectively. The animals were placed in restrainers and allowed to recover for 30-40 min. […] The animals were then anesthetized with pentobarbital, placed on a heating pad (37° C.) and ventilated with a Harvard rodent ventilator. After administration of atropine (1 mg/kg, iv) and tubocurarine (1 mg/kg, iv), the animals were pithed through the orbit of the eye with a stainless steel rod. The […] rod was stimulated electrically with 1 ms pulses of 80V at different frequencies (0.15, 0.45, 1.5, 5, 15 Hz) to obtain frequency-pressor response curves."}},
  "data": [
    {"smiles": "Fc1cc(F)cc(Cn2cc[nH]c2=S)c1", "note": "[SKF 102698, reference compound]", "values": [
      {"measurement": "acoustic startle reactivity vs vehicle", "setting": "[1]", "value": "significantly lower startle response compared to cyclodextrin"},
      {"measurement": "acoustic startle reactivity vs vehicle", "setting": "[1]; listed as SKF102698", "value": "significantly reduced"}
    ]},
    {"smiles": "Cl.NCc1c[nH]c(=S)n1[C@H]1CCc2c(F)cc(F)cc2C1", "note": "[nepicastat, (S)-5-Aminomethyl-1-(5,7-difluoro-1,2,3,4-tetrahydronaphth-2-yl)-2,3-dihydro-2-thioxo-1H-imidazole hydrochloride]", "values": [
      {"measurement": "maximal increase in DA/NE ratio, artery (renal)", "setting": "[2]; 5 mg/kg", "value": 95, "unit": "fold"},
      {"measurement": "maximal increase in DA/NE ratio, cerebral cortex", "setting": "[2]; 5 mg/kg", "value": 80, "unit": "fold"},
      {"measurement": "maximal increase in DA/NE ratio, left ventricle", "setting": "[2]; 5 mg/kg", "value": 151, "unit": "fold"},
      {"measurement": "decrease in noradrenaline, cerebral cortex", "setting": "[2]; 5 mg/kg b.i.d. po", "value": 96, "unit": "%"},
      {"measurement": "decrease in noradrenaline, left ventricle", "setting": "[2]; 5 mg/kg b.i.d. po", "value": 91, "unit": "%"},
      {"measurement": "decrease in noradrenaline, renal artery", "setting": "[2]; 5 mg/kg b.i.d. po", "value": 88, "unit": "%"},
      {"measurement": "increase in dopamine, cerebral cortex", "setting": "[2]; 5 mg/kg b.i.d. po", "value": 166, "unit": "%"},
      {"measurement": "increase in dopamine, left ventricle", "setting": "[2]; 5 mg/kg b.i.d. po", "value": 700, "unit": "%"},
      {"measurement": "increase in dopamine, renal artery", "setting": "[2]; 5 mg/kg b.i.d. po", "value": 627, "unit": "%"},
      {"measurement": "doses at which catecholamine changes attained statistical significance (p<0.05)", "setting": "[2]; renal artery, left ventricle, cerebral cortex", "value": "> 0.1", "unit": "mg/kg/day"},
      {"measurement": "peak decrease in blood pressure", "setting": "blood pressure; 30 mg/kg/d", "value": "−20", "unit": "mmHg"},
      {"measurement": "peak decrease in blood pressure", "setting": "blood pressure; 100 mg/kg/d", "value": "−42", "unit": "mmHg"},
      {"measurement": "effect on blood pressure", "setting": "blood pressure; 3 and 10 mg/kg/d", "value": "no significant effects"},
      {"measurement": "effect on blood pressure", "setting": "blood pressure; 30 and 100 mg/kg/d for 30 days", "value": "significantly lowered blood pressure"},
      {"measurement": "effect on blood pressure of nepicastat 30 mg/kg combined with enalapril 1 mg/kg p.o.", "setting": "blood pressure; 30 days of dosing", "value": "potentiation of the antihypertensive effects"},
      {"measurement": "left ventricular mass, nepicastat 30 mg/kg combined with enalapril 1 mg/kg p.o.", "setting": "blood pressure; 30 days of dosing", "value": "significant reduction in left ventricular mass"},
      {"measurement": "motor activity", "setting": "blood pressure; 30 days of dosing", "value": "unaffected"},
      {"measurement": "β-adrenergic receptor binding, treated vs vehicle left ventricular samples", "setting": "β-adrenergic receptor", "value": "no difference"},
      {"measurement": "responses to preganglionic nerve stimulation", "setting": "[3]; 3 mg/kg p.o., 5 hours after dosing", "value": "significantly attenuated the hypertensive and tachycardic responses"},
      {"measurement": "maximum shift of the frequency-pressor response curve", "setting": "[3]; 5 h after oral dosing", "value": 5, "unit": "fold"}
    ]}
  ]
}
